Measurements: ChEMBL document CHEMBL1157539, “Thousands of chemical starting points for antimalarial lead identification” (Nature, 2010)

These compounds were tested on Plasmodium falciparum (assay: GSK_TCMDC: Inhibition of Plasmodium falciparum 3D7 in whole erythrocytes, using parasite LDH activity as an index of growth.). Conditions: not given.
Assay type: functional, organism-based

In the case of `COC(=O)c1ccc(CC(C)NCC(O)c2cccc(C(F)(F)F)c2)cc1` (centres undefined), the XC50 is reported as 765 nM.

Same assay, conditions: Plasmodium falciparum, 3D7

In order of falling XC50:
1. Cc1cccc2nc(-c3ccc(-c4cccc(CN5CCC(C(N)=O)CC5)c4)cc3)[nH]c12  1770 nM
2. COc1ccc(-c2cnc(N)c(-c3nc4cc(Br)ccc4[nH]3)c2)cc1  1560 nM
3. O=C(Nc1ccccc1O)c1ccc(S(=O)(=O)c2ccc(Cl)cc2)cc1  1350 nM
4. COc1ccc2nccc([C@@H](O)CN3CCC(NCc4nc5c(cc4Cl)OCC(=O)N5)C(F)C3)c2c1 (some centres undefined)  1320 nM
5. O=C(Nc1cccc(-c2ccc(CN3CCNCC3)cc2)c1)c1cccc(Cl)c1  1250 nM
6. CCCCc1cc(NCC)nc(Nc2ccc(OC)cc2)n1  1180 nM
7. CC(C)CNCc1cccc(-c2cccc(CNCCCN3CCN(C)CC3)c2)c1  1180 nM
8. c1cc(CNCC2CCCO2)cc(-c2ccc(-c3nc4ccccc4[nH]3)s2)c1 (centres undefined)  1170 nM
9. FC(F)(F)c1ccc2[nH]c(-c3ccc(-c4ccc(CNCCN5CCNCC5)cc4)cc3)nc2c1  1120 nM
10. Nc1nnc(-c2ccc(Cl)c(Br)c2)c(N)n1  1040 nM
11. CN(C)c1ccc(-c2ccc(C(=O)NC3CCN(Cc4cccc(C(F)(F)F)c4)CC3)s2)cc1  985 nM
12. CC(C)NCc1ccc(-c2ccc(NC(=O)c3cccc(Cl)c3)cc2)cc1  962 nM
13. NC(=O)c1c(Cl)nc2ccccc2c1Cl  960 nM
14. O=c1cc(NCCCNCc2ccc(C(F)(F)F)cc2F)[nH]c2ccccc12  956 nM
15. O=c1cc(NCCCNCc2cccc(Oc3ccccc3)c2)[nH]c2ccccc12  946 nM
16. Nc1nc(N)c2c(ccc3c2ccn3Cc2ccc(OCc3ccccc3)cc2)n1  933 nM
17. c1ccc(CCNCc2ccc(-c3cccc(CNc4ccc5ncccc5c4)c3)cc2)cc1  926 nM
18. CNCC(O)c1cc(Cl)c(Cl)cc1C (centres undefined)  922 nM
19. COc1cc2c(cc1S(=O)(=O)c1ccc(OCc3ccc(Cl)cc3)cc1)CCN(Cc1ccc(NC(C)=O)s1)CC2  919 nM
20. CC(C)(C)OC(=O)NCc1ccc(Nc2nnc(-c3ccc(OCC(=O)NC[C@@H]4CC[C@H]5C[C@@H]4C5(C)C)c([N+](=O)[O-])c3)o2)cc1  911 nM
21. CO/C(=C\C=C\c1cc2cc(Cl)c(Cl)cc2[nH]1)C(=O)NCCCN1CCC(c2ccccc2)CC1  906 nM
22. Cc1cccc(NC(=O)Nc2cccc(-c3ccc(-c4nc5cc(C(F)(F)F)ccc5[nH]4)cc3)c2)c1  905 nM
23. CNC(=O)c1cc(Nc2nnc(-c3ccc(C)c(S(=O)(=O)NC4CCCCC4)c3)c3ccccc23)ccc1OC  904 nM
24. CCCc1cc(NC2CCN(C)CC2)nc(Nc2ccc(C)cc2)n1  898 nM
25. COc1ccc(CN(C)CCCOc2ccc(NC(=O)c3cccc4c(=O)c5cccc(C)c5[nH]c34)cc2)cc1OC  889 nM
26. O=C(Cc1ccc(Nc2nccc(Nc3cccc4[nH]ncc34)n2)cc1)Nc1ccc(C(F)(F)F)cc1  888 nM
27. CS(=O)(=O)c1ccc(CCNCc2ccc(-c3ccc(CN(C(=O)c4ccco4)C4CCN(Cc5ccccc5)CC4)cc3)nc2)cc1  884 nM
28. Cc1cc(CN2CCCC(OC(c3ccc(F)cc3)c3ccc(F)cc3)C2)ccc1O (centres undefined)  883 nM
29. Cc1c(CCC#N)c(NCc2ccccc2)n2c(nc3ccccc32)c1C#N  876 nM
30. COc1ccc(Cl)cc1N1CCN(CCCNC(=O)c2ccc(-c3nc4cc(Cl)c(Cl)cc4[nH]3)c(C)c2)CC1  866 nM
31. CC12CCC(C(=O)N(CC(O)Cn3c4ccc(Cl)cc4c4cc(Cl)ccc43)C1=O)C2(C)C (centres undefined)  844 nM
32. Oc1ccc2[nH]c(-c3ccc(F)cc3F)nc2c1CN1CCC(O)(c2ccccc2)CC1  839 nM
33. CC1CN(S(=O)(=O)c2ccc(NC(=O)c3cc(-c4ccccc4O)n[nH]3)cc2)CC(C)O1 (centres undefined)  832 nM
34. CCN(CC)CCN(CCCc1ccc(-c2ccc(C(F)(F)F)cc2)cc1)C(=O)Cn1c(CCc2cccc(F)c2F)nc(=O)c2c1CCC2  828 nM
35. c1ccc(COc2ccc(Nc3ncnc4ccc(-c5ccc(CN6CCSCC6)o5)cc34)cc2)cc1  827 nM
36. O=C(/C=C/c1ccc(Cl)c(Cl)c1)NCCCCCN1CC[C@H](NC(=O)c2sc3ccccc3c2Cl)C1  809 nM
37. COc1cccc(CCc2nc3c(N4CCC(Cc5ccccc5)CC4)cccc3n2CC2CNCCO2)c1 (centres undefined)  800 nM
38. CN(C)CCN(Cc1ccc(-c2ccc(CNCCc3ccccc3)cc2)nc1)C(=O)CCC1CCCC1  799 nM
39. c1ccc(CN2CCC(Nc3ccc(-c4c[nH]nc4-c4ccccn4)nc3)CC2)cc1  799 nM
40. Clc1ccccc1CNc1noc(-c2sccc2Br)n1  787 nM
41. O=C(NCc1ccc(Cl)c(Cl)c1)c1ccc(C2CCCN(Cc3ccc4[nH]cnc4c3)C2)cc1 (centres undefined)  776 nM
42. O=C(Cc1ccc(-c2ccccc2)cc1)N[C@H]1CCN(Cc2ccc(OCCCN3CCCCC3)cc2)C1  772 nM
43. CC1CCCCC1N(C)C1CCN(CCCNC(=O)C=Cc2cccc(C(F)(F)F)c2)CC1 (centres undefined)  772 nM
44. N#Cc1ccc(NC(=O)N2CCCN(CCCCCNC(=O)/C=C/c3ccc(Cl)c(Cl)c3)CC2)cc1  768 nM
45. c1cc(-c2ccc(CNC3CCOCC3)cc2)cc(-c2nc3ccccc3[nH]2)c1  768 nM
46. CCOc1ccc(C(=O)Nc2cc(Br)c3c(c2)CNCC3)cc1C#N  765 nM
47. Cc1sc(CNCCCNc2cc(=O)c3ccccc3[nH]2)cc1Br  764 nM
48. CCOc1ccc(CN(CCc2ccc3c(c2)OCO3)Cc2cc(OC)ccc2O)cc1  753 nM
49. CC(C)c1ccc(CN2CCC(CNC(=O)c3cc(-c4cccc(Cl)c4)cs3)C2)cc1 (centres undefined)  752 nM
50. NCC1CCCN1Cc1cccc(-c2ccc(-c3nc4cc(C(F)(F)F)ccc4[nH]3)s2)c1 (centres undefined)  748 nM
51. N#Cc1c(N)nc(SCC(=O)Nc2cc(C(F)(F)F)ccc2Cl)c(C#N)c1-c1cccs1  743 nM
52. COc1ccc(CCN(C)CCOc2ccc(NC(=O)c3cccc4c(=O)c5cc(SC)ccc5[nH]c34)cc2)cc1OC  740 nM
53. Cn1nc(-c2cccc(CN[C@@H]3CCc4ccc(O)cc43)c2)c2cnc(NC3CCCC3)nc21  736 nM
54. COc1cc(-c2ccc(-c3cnc(N)nc3OC)[nH]2)cc(OC)c1OC  729 nM
55. COc1cc2ncnc(Nc3ccc(OCc4ccccc4)c(I)c3)c2cc1OC  712 nM
56. O=C(C1CCN(c2nnnn2-c2ccccc2)CC1)N1CCc2ccccc2C1  712 nM
57. O=C(Nc1ccc(-c2cccc(-c3nc4cc(C(F)(F)F)ccc4[nH]3)c2)cc1)Nc1ccc(F)c(F)c1F  706 nM
58. COc1cc(C)ccc1N1CCN(CCCCNC(=O)c2ccc(NC(=O)c3ccc(Cl)cc3)cc2)CC1  700 nM
59. CN1CCN(CC(=O)Nc2ccc(-c3ccc(-c4nc5ccccc5[nH]4)cc3)cc2)CC1  696 nM
60. CC1=NN(c2ccc(C)c(C)c2)C(=O)C1=NNc1cccc(-c2cccc(NC(=O)OC(C)(C)C)c2)c1O  695 nM
61. NS(=O)(=O)c1ccccc1Nc1nc(Nc2ccc(N3CCOCC3)cc2)nc2c1CCC2  667 nM
62. COc1cccc(-c2cnc(N)c(-c3nc4ccc(C(F)(F)F)cc4[nH]3)c2)c1  652 nM
63. N#Cc1cccc(-c2cnc(N)c(-c3nc4cc(S(N)(=O)=O)ccc4[nH]3)c2)c1  644 nM
64. COc1ccc(Br)cc1/C=C/C(=O)Nc1ccc(C2CCCN(C)C2)cc1 (centres undefined)  633 nM
65. CC(C)CN1CCC(COc2ccc3ncn(-c4cc(O[C@H](C)c5ccccc5C(F)(F)F)c(C(N)=O)s4)c3c2)CC1  618 nM
66. Cc1ccc(Nc2nccc(Nc3ccc4c(c3)nc(Nc3cc(C(C)(C)C)on3)n4C)n2)cc1S(C)(=O)=O  599 nM
67. COc1ccc(N2CCN(CCCCNC(=O)c3ccc(NC(=O)c4ccc(C(F)(F)F)cc4)cc3)CC2)c(OC)c1  593 nM
68. CCCCCCCN1CCC(CC(=O)Nc2ccnc3ccc(OC)cc23)C(CC)C1 (centres undefined)  593 nM
69. CC(Cc1ccc(Sc2ccccc2)cc1)NCC(O)c1cccc(C(F)(F)F)c1 (centres undefined)  589 nM
70. Cc1ccc2c(c1)nc(N)n2C[C@H](O)c1ccccc1  582 nM
71. Cc1cccc2nc(-c3ccc(-c4ccc(CNCc5cccc(N)c5)cc4)cc3)[nH]c12  565 nM
72. Cc1ccc(NC(C)C(=O)Nc2ccc(C#N)cc2)cc1S(=O)(=O)N1CCCCC1 (centres undefined)  545 nM
73. O=C(NCCCCN1CC=C(c2ccc3c(c2OCC2CC2)CCCC3)CC1)c1ccc(-c2ccc(C(F)(F)F)cc2)cc1  540 nM
74. COc1ccc(NC(=O)[C@H](Cc2ccccc2)Nc2cc(C)nc(NCCc3ccccc3OC)n2)cc1  529 nM
75. CC1CN(c2nc(NCCc3ccc(O)cc3)nc(NCc3ccccc3-c3ccc(C(F)(F)F)cc3)n2)CC(C)N1 (centres undefined)  529 nM
76. CC(=O)Nc1ccc(NC(=O)c2cc(-c3ccc(C)cc3O)n[nH]2)cc1  490 nM
77. CCOC(=O)c1[nH]c2ccc(F)cc2c1NC(=O)CN1CCN(c2cccc(C(F)(F)F)c2)CC1  458 nM
78. COc1c(CN2CCCC2)cccc1-c1cc2c(-c3ccc(C(=O)O)c(C(C)C)c3)ccnc2[nH]1  439 nM
79. Cc1cccc2nc(-c3ccc(-c4cccc(NC(=O)CCc5c[nH]cn5)c4)cc3)[nH]c12  410 nM
80. COc1ccc2nccc([C@@H](O)CN3CCC(NCc4cc5oc(=O)[nH]c5cc4Cl)CC3)c2c1  380 nM
81. O=C(NC1CCC(CN2CCC(c3c[nH]c4ccccc34)CC2)CC1)c1cc2cccc([N+](=O)[O-])c2[nH]1 (centres undefined)  341 nM
82. CC1Cc2ccccc2N1CC(=O)Nc1cc(C(F)(F)F)ccc1-n1cncn1 (centres undefined)  321 nM
83. c1ccc(CNc2cc(-c3ccccn3)nc(-c3ccccn3)n2)cc1  302 nM
84. CCOC(=O)CCCc1cc(NC2CCN(C)CC2)nc(Nc2ccc(C)cc2)n1  263 nM
85. COc1cc2nc(NCCc3ccccc3)nc(NCc3cc(C)no3)c2cc1OC  239 nM
86. CC(C)CCCC(C)(C)NC[C@@H](O)[C@H](Cc1ccccc1)NC(=O)c1cc(NC(C)C)cc(N2CCCCS2(=O)=O)c1F  219 nM
87. CC[C@H](C)[C@H](NC(=O)[C@H](CC1CCCCC1)[C@H](CC)N(O)C=O)C(=O)Nc1ccccn1  176 nM
88. CC(C)C[C@H](NC(=O)c1ccc(OCCN2CCOCC2)cc1)C(=O)N[C@H](/C=N/NC(=O)OC(C)(C)C)CCc1ccccc1  162 nM
89. COc1ccc2nccc([C@@H](O)CN3CCC(NC(=O)C(c4cc5ccccc5s4)N4CCN(c5ccccc5OC)CC4)CC3)c2c1 (some centres undefined)  160 nM
90. CN1CCN(c2ccc(Nc3ncc(Cl)c(Nc4cccnc4C(N)=O)n3)cc2)CC1  153 nM
91. NC(=O)NC(=O)C=Cc1ccco1  150 nM
92. c1ccc2c(NCCCCCCCCCNc3ccnc4ccccc34)ccnc2c1  115 nM
93. CS(=O)(=O)c1ccc(-c2cc(C(F)(F)F)nc(N[C@@H]3CCCC[C@H]3OCc3ccccc3)n2)cc1  60.4 nM
